Values joined by “and” are separate entries in the source; they are usually repeats but may differ in a detail not shown here. Equal values may be shown once. Toxic doses and inconclusive results are not listed. Cut-off read from the data, not from the text of the source: active = T/C of 150% or more; inactive = T/C below 125%.
System: L1210 leukemia ip in BDF1 mice, survival T/C
Experiment: NCI In Vivo Anticancer Drug Screen. Data for tumor model L1210 Leukemia (intraperitoneal) in B6D2F1 (BDF1) mice
Conditions: endpoint: mean survival time, higher = longer survival
How it was run: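 Transplantable tumor model; survival measured in treated vs vehicle control mice. Value = treated/control.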

[1] = dose: 50.0 mg/kg/injection, schedule: Q01DX009 (ip), vehicle: Klucel (hydroxypropylcellulose) (HPC)
[2] = dose: 100.0 mg/kg/injection, schedule: Q01DX009 (ip), vehicle: Klucel (hydroxypropylcellulose) (HPC)
[3] = dose: 100.0 mg/kg/injection, schedule: Q04DX003 (ip), vehicle: saline
[4] = dose: 100.0 mg/kg/injection, schedule: Q01DX009 (ip), vehicle: saline
[5] = dose: 100.0 mg/kg/injection, schedule: Q04DX002 (ip), vehicle: saline with Tween-80
[6] = dose: 200.0 mg/kg/injection, schedule: Q04DX002 (ip), vehicle: saline with Tween-80
[7] = dose: 400.0 mg/kg/injection, schedule: Q04DX002 (ip), vehicle: saline with Tween-80
[8] = dose: 100.0 mg/kg/injection, schedule: Q01DX001 (ip), vehicle: other
[9] = dose: 200.0 mg/kg/injection, schedule: Q01DX001 (ip), vehicle: other
[10] = dose: 25.0 mg/kg/injection, schedule: Q04DX002 (ip), vehicle: saline
[11] = dose: 50.0 mg/kg/injection, schedule: Q01DX009 (ip), vehicle: saline
[12] = dose: 50.0 mg/kg/injection, schedule: Q04DX002 (ip), vehicle: saline

Measured: T/C

CC(=O)OCC(=O)[C@@]1(O)CC[C@H]2[C@@H]3CCC4=CC(=O)CC[C@]4(C)[C@H]3C(=O)C[C@@]21C
inactive: dose: 12.5 mg/kg/injection, schedule: Q01DX015 (sc), vehicle: steriod suspending solution 102 % of control | dose: 25.0 mg/kg/injection, schedule: Q01DX015 (sc), vehicle: steriod suspending solution 100 % of control | dose: 50.0 mg/kg/injection, schedule: Q01DX015 (sc), vehicle: steriod suspending solution 100 % of control | dose: 100.0 mg/kg/injection, schedule: Q01DX001 (sc), vehicle: steriod suspending solution 101 % of control | dose: 100.0 mg/kg/injection, schedule: Q01DX015 (sc), vehicle: steriod suspending solution 107 % of control | dose: 100.0 mg/kg/injection, schedule: Q04DX003 (sc), vehicle: steriod suspending solution 108 % of control | dose: 200.0 mg/kg/injection, schedule: Q01DX001 (sc), vehicle: steriod suspending solution 92 % of control | dose: 200.0 mg/kg/injection, schedule: Q01DX015 (sc), vehicle: steriod suspending solution 110 % of control | dose: 200.0 mg/kg/injection, schedule: Q04DX003 (sc), vehicle: steriod suspending solution 102 % of control | dose: 400.0 mg/kg/injection, schedule: Q01DX001 (sc), vehicle: steriod suspending solution 111 % of control | dose: 400.0 mg/kg/injection, schedule: Q01DX015 (sc), vehicle: steriod suspending solution 104 % of control | dose: 400.0 mg/kg/injection, schedule: Q04DX003 (sc), vehicle: steriod suspending solution 98 % of control

O=S1(=O)CC23C=CC=CC2(CCCC3)C1Cl (configuration not stated)
inactive: dose: 25.0 mg/kg/injection, schedule: Q01DX009 (ip), vehicle: Klucel (hydroxypropylcellulose) (HPC) 94 % of control | [1] 102 % of control | [2] 94 % of control

CC(=O)OCc1ccc[nH]c1=O
inactive: [3] 104 % of control | dose: 200.0 mg/kg/injection, schedule: Q04DX003 (ip), vehicle: saline 98 % of control | dose: 400.0 mg/kg/injection, schedule: Q04DX003 (ip), vehicle: saline 104 % of control

CCCCCCCCCCCCCSCCSCCCCCCCCCCCCC
inactive: dose: 100.0 mg/kg/injection, schedule: Q01DX001 (ip), vehicle: Klucel (hydroxypropylcellulose) (HPC) 96 % of control | dose: 200.0 mg/kg/injection, schedule: Q01DX001 (ip), vehicle: Klucel (hydroxypropylcellulose) (HPC) 86 % of control | dose: 400.0 mg/kg/injection, schedule: Q01DX001 (ip), vehicle: Klucel (hydroxypropylcellulose) (HPC) 96 % of control

OC1CCSc2ccc3ccccc3c21 (configuration not stated)
inactive: [4] 114 % of control | dose: 200.0 mg/kg/injection, schedule: Q01DX009 (ip), vehicle: saline 104 % of control | dose: 400.0 mg/kg/injection, schedule: Q01DX009 (ip), vehicle: saline 104 % of control

Oc1c(Br)cc(Nc2c3ccccc3nc3ccccc23)cc1Br
inactive: [5] 100 % of control | [6] 95 % of control | [7] 100 % of control

Cc1nc2cnc(N)nc2nc1C
inactive: dose: 16.0 mg/kg/injection, schedule: Q01DX Z (ip), vehicle: methylcellulose (MC) 97 % of control | dose: 31.0 mg/kg/injection, schedule: Q01DX Z (ip), vehicle: methylcellulose (MC) 97 % of control | dose: 62.0 mg/kg/injection, schedule: Q01DX Z (ip), vehicle: methylcellulose (MC) 109 % of control | [8] 96 % of control | dose: 125.0 mg/kg/injection, schedule: Q01DX Z (ip), vehicle: methylcellulose (MC) 89 % of control and 90 % of control | [9] 101 % of control | dose: 250.0 mg/kg/injection, schedule: Q01DX Z (ip), vehicle: methylcellulose (MC) 91 % of control | dose: 400.0 mg/kg/injection, schedule: Q01DX001 (ip), vehicle: other 98 % of control | dose: 500.0 mg/kg/injection, schedule: Q01DX Z (ip), vehicle: methylcellulose (MC) 93 % of control

Cc1cc(C)c(NC(=O)C2CCCCC2C(=O)O)c(C)c1 (configuration not stated)
inactive: dose: 100.0 mg/kg/injection, schedule: Q04DX002 (ip), vehicle: Klucel (hydroxypropylcellulose) (HPC) 99 % of control | dose: 200.0 mg/kg/injection, schedule: Q04DX002 (ip), vehicle: Klucel (hydroxypropylcellulose) (HPC) 92 % of control | dose: 400.0 mg/kg/injection, schedule: Q04DX002 (ip), vehicle: Klucel (hydroxypropylcellulose) (HPC) 99 % of control

O=[N+]([O-])c1ccc(C2OC(c3ccncc3)=NC2CO)cc1 (configuration not stated)
inactive: dose: 12.5 mg/kg/injection, schedule: Q04DX002 (ip), vehicle: saline 90 % of control | [10] 97 % of control | [11] 96 % of control | [12] 90 % of control | dose: 75.0 mg/kg/injection, schedule: Q01DX009 (ip), vehicle: saline 102 % of control | dose: 115.0 mg/kg/injection, schedule: Q01DX009 (ip), vehicle: saline 101 % of control

CCN(CC)CCOc1ccc(N=N/C(C(C)=O)=C(\C)O)cc1
inactive: [10] 93 % of control and 96 % of control | [12] 101 % of control and 104 % of control

O=CC(O)C(O)C(Cl)C(O)CCl (configuration not stated)
inactive: [5] 90 % of control | [6] 97 % of control | [7] 93 % of control

COc1cc(C=Nc2ccc(C(=O)O)c(O)c2)ccc1N(CCCl)CCCl
inactive: dose: 11.0 mg/kg/injection, schedule: Q01DX001 (ip), vehicle: carboxymethylcellulose (CMC) 118 % of control

Cn1c(O)c(C=N)c(=O)n(C)c1=O
inactive: dose: 25.0 mg/kg/injection, schedule: Q01DX009 (ip), vehicle: saline 101 % of control | [11] 100 % of control | [4] 87 % of control | [3] 98 % of control

O=C1c2ccccc2C(=O)C1c1nc2ccccc2cc1O
inactive: dose: 12.5 mg/kg/injection, schedule: Q01DX009 (ip), vehicle: saline with Tween-80 94 % of control | dose: 12.5 mg/kg/injection, schedule: Q04DX002 (ip), vehicle: saline with Tween-80 96 % of control | dose: 25.0 mg/kg/injection, schedule: Q01DX009 (ip), vehicle: saline with Tween-80 96 % of control and 102 % of control | dose: 25.0 mg/kg/injection, schedule: Q04DX002 (ip), vehicle: saline with Tween-80 104 % of control | dose: 50.0 mg/kg/injection, schedule: Q01DX009 (ip), vehicle: saline with Tween-80 102 % of control | dose: 50.0 mg/kg/injection, schedule: Q04DX002 (ip), vehicle: saline with Tween-80 89 % of control | dose: 115.0 mg/kg/injection, schedule: Q01DX009 (ip), vehicle: saline with Tween-80 93 % of control | dose: 170.0 mg/kg/injection, schedule: Q01DX009 (ip), vehicle: saline with Tween-80 100 % of control

CNC(=O)Oc1cccc2c1C(=O)OC2=O
inactive: [8] 93 % of control | dose: 100.0 mg/kg/injection, schedule: Q04DX003 (ip), vehicle: other 94 % of control | [9] 90 % of control | dose: 200.0 mg/kg/injection, schedule: Q04DX003 (ip), vehicle: other 94 % of control | dose: 400.0 mg/kg/injection, schedule: Q04DX003 (ip), vehicle: other 98 % of control

CC1(C)CC(C)(c2ccccc2)c2ccccc21 (configuration not stated)
inactive: [1] 101 % of control | dose: 75.0 mg/kg/injection, schedule: Q04DX003 (ip), vehicle: Klucel (hydroxypropylcellulose) (HPC) 104 % of control | [2] 95 % of control | dose: 150.0 mg/kg/injection, schedule: Q04DX003 (ip), vehicle: Klucel (hydroxypropylcellulose) (HPC) 102 % of control | dose: 200.0 mg/kg/injection, schedule: Q01DX009 (ip), vehicle: Klucel (hydroxypropylcellulose) (HPC) 95 % of control | dose: 300.0 mg/kg/injection, schedule: Q04DX003 (ip), vehicle: Klucel (hydroxypropylcellulose) (HPC) 102 % of control

CN(CC(=O)O)C(=N)N
inactive: dose: 100.0 mg/kg/injection, schedule: Q01DX001 (ip), vehicle: carboxymethylcellulose (CMC) 92 % of control | dose: 200.0 mg/kg/injection, schedule: Q01DX001 (ip), vehicle: carboxymethylcellulose (CMC) 94 % of control | dose: 250.0 mg/kg/injection, schedule: Q01DX Z (ip), vehicle: saline 94 % of control | dose: 400.0 mg/kg/injection, schedule: Q01DX001 (ip), vehicle: carboxymethylcellulose (CMC) 97 % of control | dose: 500.0 mg/kg/injection, schedule: Q01DX Z (ip), vehicle: saline 104 % of control | dose: 1000.0 mg/kg/injection, schedule: Q01DX Z (ip), vehicle: saline 107 % of control | dose: 1500.0 mg/kg/injection, schedule: Q#A X Z (ip), vehicle: water 117 % of control | dose: 2500.0 mg/kg/injection, schedule: Q#A X Z (ip), vehicle: water 95 % of control
